Test results: patent US8741889B2, “Method of treating non-small cell lung cancer and colon cancer with gamma-secretase inhibitor” (Hoffmann-La Roche Inc, priority 2008, dated 2014)

Tested on: MiaPaca2 human pancreatic carcinoma xenografts
Test: Antitumor efficacy in MiaPaca2 pancreatic xenografts in nude mice
Assay type: in vivo
Conditions: day 37
Protocol: Female (athymic nu/nu) nude mice were obtained from Charles River Laboratories (Wilmington, Mass.), while female SCID-beige mice were purchased from Taconic (Germantown, N.Y.). Mice were used when they were approximately 8-12 weeks old (nudes) or 8-10 weeks old (SCID-beige), and weighed approximately 23-25 grams. The health of all animals was determined daily by gross observation of experimental animals and by the analyses of blood samples of sentinel animals that were housed on the shared shelf racks. All animals were allowed to acclimate and recover from any shipping related stress for a minimum of 72 hours prior to experimental use. Autoclaved water and irradiated food [5058-ms Pico chow (mouse) Purina, Richmond, Ind.] were provided ad libitum, and the animals were maintained on a 12 hour light and dark cycle. Cages, bedding and water bottles were autoclaved before use and were changed weekly. MiaPaca2, AsPC1 and BxPC3 human pancreatic carcinoma cells were purchased from ATCC (Manassas, Va.). BxPC3 and AsPC1 cells were grown in RPMI medium and MiaPaca2 cells were grown in Dulbecco's Modified Essential Medium (DMEM). All culture media were supplemented with 10% (v/v) FBS and 1% (v/v) […]. […] SCID-biege mice were implanted se with 5×10^6 BxPC3 cells in a 1:1 mixture of matrigel:PBS in a volume of 0.2 ml per mouse in the right hind flank on May 22, 2007. […] Formulated compound and vehicle were stored at 4° C. and prepared weekly. The suspension was mixed vigorously prior to administration. Gemcitabine (Gemzar®, Eli Lilly and Company, Indianapolis, Ind., USA) was reconstituted with sterile saline to yield a stock solution of 38 mg/ml for the entire 3-4 week study. […] Nude mice implanted with MiaPaca2 or AsPC1 xenografts were randomized on day 17 and day 9 post cell implant, respectively. SCID-beige mice bearing BxPC3 xenografts were randomized 8 days post implant. […] Treatment for the MiaPaca2 study began on Feb. […] For the MiaPaca2 and AsPC1 studies, qd Compound (1) suspension or q3d gemcitabine treatment ended on day 37 post tumor cell implant, whereas for the BxPC3 study, qd Compound (1) suspension or q3d gemcitabine treatment ended on day 35 post tumor cell implant. For intermittent dosing of Compound (1) suspension in the MiaPaca2 study using the 7+/7−/7+ schedule, treatment ended on day 23, was reinitiated on day 31, and ended day 37. In the combination groups Compound (1) suspension was given sequentially with gemcitabine using the 7+/7−/7+ schedule so that Compound (1) was dosed daily only during the first and third weeks, whereas gemcitabine was dosed q3d during the second week only. Efficacy data was graphically represented as the mean tumor volume+standard error of the mean (SEM). Tumor volumes of treated groups were presented as percentages of tumor volumes of the control groups (% T/C), using the formula: 100×((T−T0)/(C−C0)), where T represented mean tumor volume of a treated group on a specific day during the experiment, T0 represented mean tumor volume of the same […] on the first day of treatment; C represented mean tumor volume of a control group on the specific day during the experiment, and C0 represented mean tumor volume of the same treated group on the first day of treatment. Tumor volume (in cubic millimeters) was calculated using the ellipsoid formula: (D×(d2))/2 where ‘D’ represents the large diameter of the tumor, and ‘d’ represents the small diameter. In some cases, tumor regression and/or percent change in tumor volume was calculated using the formula: ((T−T0)/T0)×100 where ‘T’ represents mean tumor volume of the treated group at a particular day, and ‘T0’ represents mean tumor volume of the same treated group at initiation of treatment. Statistical analysis was determined by the rank sum test and One Way Anova and a post-hoc Bonferroni t-test (SigmaStat, version 2.0, Jandel Scientific, San Francisco, Calif.). […]

Compound: CC(C)(C(=O)NCC(F)(F)C(F)(F)F)C(=O)N[C@@H]1C(=O)Nc2ccccc2-c2ccccc21 [Compound (1), 2,2-Dimethyl-N—((S)-6-oxo-6,7-dihydro-5H-dibenzo[b,d]azepin-7-yl)-N′-(2,2,3,3,3-pentafluoro-propyl)-malonamide]
- % TGI (1 mg/kg po qd × 21 days): 39%
- % TGI (3 mg/kg po qd × 21 days): 42%
- % TGI (10 mg/kg po qd × 21 days): 53%
- % TGI (10 mg/kg po, 7+/7−/7+): 51%
- % TGI (30 mg/kg po, 7+/7−/7+): 58%
- % TGI (60 mg/kg po, 7+/7−/7+): 48%
